Laboratory results taken from patent US20260160767A1, “Biosynthetic Method for Preparing 10-Hydroxy-2-Decenoic Acid and Use Thereof in Skin Care” (SHANDONG FREDA BIOTECH CO., LTD., priority 2023, published 2026).

How the values were obtained:
Assay type in all cases: cell-based
[1] = tested on: fibroblasts; assay: Telomere length by qPCR (T/S ratio) in H2O2-stimulated fibroblasts; conditions: positive control 1 mg/mL; cells from adult; H2O2 stimulation three days, 2 hours each; five passages
Experimental: Fibroblasts were seeded into a 6-well plate at a seeding density of 2.2×10^5 cells/well and incubated overnight in an incubator (37° C., 5% CO2). When the confluence reached 40%-60%, 2 mL of culture medium containing a corresponding concentration of a test substance was added to each well according to different groups. The BC group was a blank control group, wherein the cells were derived from back skin of children aged 7-8 years, and no drug intervention was performed during cultivation. The NC group was a negative control group, wherein the cells were derived from back skin of an adult. When the confluence reached 40%-60%, H2O2 stimulation was applied for three consecutive days, with each stimulation lasting 2 hours, and samples were collected for detection after continuous passaging for five passages. The PC group was a positive control group, wherein the cells were derived from back skin of an adult. When the confluence reached 40%-60%, H2O2 stimulation was applied for three consecutive days, with each stimulation lasting 2 hours. During the stimulation period, the cells were cultured in a medium containing cycloastragenol at a final concentration of 1 mg/mL. Samples were collected for detection after continuous passaging for five passages. […] Genomic DNA (gDNA) was obtained using a genomic DNA extraction kit, and telomere length was determined by qPCR using gDNA as a template.

[2] = tested on: fibroblasts; assay: Mitochondrial function in UV-A irradiated fibroblasts (mitochondrial ROS, ATP, NADP+/NADPH and JC-1 kits); conditions: 10-HDA 0.25 mg/mL, UV-A 30 J/cm^2, 24 hours after irradiation, relative to irradiated control; for inhibition at 250 µg/mL: Fibroblast, light or radiation study
Experimental: Fibroblasts were seeded into a 6-well plate at a seeding density of 2.2×10^5 cells/well and incubated overnight in an incubator (37° C., 5% CO2). When the confluence reached 40%-60%, 2 mL of culture medium containing a corresponding concentration of a test substance was added to each well according to different groups. The BC group was a blank control group without any drug intervention and was cultured only in 2 mL normal medium. The NC group was a negative control group without any drug intervention and was cultured only in 2 mL normal medium. The PC group was a positive control group containing VE at a final concentration of 7 μg/mL. The sample group contained 10-HDA at a final concentration of 0.25 mg/mL. After drug incubation for 24 hours, according to test grouping, the NC group, PC group, and sample group were subjected to UV-A irradiation at a dose of 30 J/cm^2. After irradiation, the cells were further cultured for 24 hours in an incubator (37° C., 5% CO2). After incubation, mitochondrial functions were assessed according to instructions of a mitochondrial ROS detection kit, a mitochondrial ATP detection kit (Beyotime), a mitochondrial NADP^+/NADPH detection kit (WST-8 method), and a JC-1 mitochondrial membrane potential detection kit.

[3] = tested on: 3D epidermal model; assay: Regulation of ceramides and fatty acids in a 3D epidermal model (stratum corneum lipid extraction, LC-MS); conditions: 10-HDA 0.0625 mg/mL; relative to untreated control system
Experimental: The model was transferred to a 6-well plate pre-filled with 3.7 mL/well model culture medium and incubated for 24 hours in a CO2 incubator (37° C., 5% CO2). The positive control (PC) group contained WY-14643 (pirinixic acid) at a final concentration of 50 μM. In the sample group, 10-HDA was at a final concentration of 0.0625 mg/mL. After incubation, each model was cut into two halves. One half was used for protein measurement, and the other half was used for lipid extraction and placed in a 6-well plate (the model was stored at −80° C.). For lipid extraction, 1 mL trypsin was added to each well of the 6-well plate and incubated for 30 minutes in an incubator. Water was added on the lid of the 6-well plate. The model and the nylon membrane were separated with tweezers, and viscous material on the stratum corneum was peeled off with tweezers. Water on the stratum corneum was blotted dry with paper, and the stratum corneum was placed into a glass tube. 1 mL chloroform:methanol mixture (chloroform:methanol=1:1) was added to each glass tube. The tube was ultrasonicated in an ice bath for 30 minutes. The supernatant was transferred to a vial and evaporated to dryness. To the dried vial, 160 μL acetonitrile: isopropanol mixture (acetonitrile:isopropanol=1:1) was added, and 20 μL ceramide C12 internal standard solution was added (the ceramide internal standard solution having a concentration of 100 μg/mL, with the internal standard solvent being a 1:1 mixture of acetonitrile and isopropanol). The mixture was ultrasonicated for 10 minutes and shaken for dissolution for 30 minutes, transferred to a sample centrifuge tube, centrifuged at 12,000 rpm for 10 minutes, and 100 μL of the upper layer was transferred into a 250 μL insert. LC-MS detection was performed using a Thermo Fisher Orbitrap Q Exactive™ quadrupole-Orbitrap high-resolution mass spectrometer.
Mass spectrometry conditions were as follows: mass spectrometry analysis was performed using a quadrupole-Orbitrap mass spectrometer equipped with a heated electrospray ionization source. Ion source voltages for positive and negative modes were 3.7 kV and 3.5 kV, respectively. Capillary heating temperature was 320° C. Sheath gas pressure was 30 psi, and auxiliary gas pressure was 10 psi. Heated vaporizer temperature was 300° C. Both sheath gas and auxiliary gas were nitrogen. Collision gas was nitrogen at a pressure of 1.5 mTorr. Full MS scan parameters were: resolution 70,000; automatic gain control target 1×10^6; […] 50 ms; and m/z scan range 50-1500. The LC-MS system was controlled by Xcalibur 2.2 SP1.48 software, and data acquisition was also controlled by the software.

[4] = tested on: fibroblasts; assay: DNA damage products 8-OHdG (kit) and γ-H2AX (immunofluorescence) in UV-A irradiated fibroblasts; conditions: Fibroblast, light or radiation study, 10-HDA 0.25 mg/mL, UV-A 30 J/cm^2, 24 hours after irradiation, relative to irradiated control without 10-HDA
Experimental: Fibroblasts were seeded into a 6-well plate at a seeding density of 2.2×10^5 cells/well and incubated overnight in an incubator (37° C., 5% CO2). When the confluence reached 40%-60%, 2 mL of culture medium containing a corresponding concentration of a test substance was added to each well according to different groups. The BC group was a blank control group without any drug intervention and was cultured only in 2 mL normal medium. The NC group was a negative control group without any drug intervention and was cultured only in 2 mL normal medium. The PC group was a positive control group containing VE at a final concentration of 7 μg/mL. The sample group contained 10-HDA at a final concentration of 0.25 mg/mL. After drug incubation for 24 hours, according to test groups, the NC group, PC group, and sample group were subjected to UV-A irradiation at a dose of 30 J/cm^2. After irradiation, the cells were further cultured for 24 hours in an incubator (37° C., 5% CO2). After incubation, cell culture supernatants were collected and tested according to the operation instructions of an 8-OHdG kit. […] Images were acquired under a fluorescence microscope and analyzed using Image-Pro® Plus image processing software.

Structure (SMILES) | telomere length increase relative to the NC group [1] | NADPH content increase [2] | mitochondrial ATP content increase [2] | inhibition at 250 µg/mL ([2]; read-out: early apoptosis rate inhibition rate) | inhibition at 250 µg/mL ([2]; read-out: mitochondrial ROS inhibition rate) | ceramide/protein (total ceramide normalized by sample protein amount) increase [3] | fatty acid/protein (total fatty acid normalized by sample protein amount) increase [3] | total ceramide increase [3] | total fatty acid increase [3] | inhibition at 250 µg/mL ([4]; immunofluorescence, read-out: γ-H2AX inhibition rate) | inhibition at 250 µg/mL ([4]; read-out: 8-OHdG inhibition rate)
CC(C)(O)[C@@H]1CC[C@](C)([C@H]2[C@@H](O)C[C@@]3(C)[C@@H]4C[C@H](O)[C@H]5C(C)(C)[C@@H](O)CC[C@@]56C[C@@]46CC[C@]23C)O1 [cycloastragenol, reference compound] | 43.1% |  |  |  |  |  |  |  |  |  | 
O=C(O)C=CCCCCCCCO [10-HDA, 10-hydroxy-2-decenoic acid] |  | 15.13% | 56.23% | 12.7% | 70.7% | 47.64% | 39.0% | 35.37% | 27.51% | 47.2% | 45.1%
